Experimental data reported in PubChem BioAssay (NCI).
“And” between values parts separate entries of the source, which are not always exact repeats. Identical values can stand only once.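 In this assay, cells in 96-well plates receive the compound at five concentrations for 48 hours. Endpoints are linearly interpolated between the surrounding concentrations. Here, GI50 denotes the concentration required for 50% inhibition of growth. TGI: concentration producing complete growth inhibition.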

Columns and labels:
Assay in all cases: DTP human tumour cell line panel, 48 h
[1] = test system: SK-MEL-2 melanoma
[2] = test system: OVCAR-8 ovarian
[3] = test system: HOP-92 NSCLC
[4] = test system: 786-0 renal
[5] = test system: MCF7 breast
[6] = test system: NCI-H460 lung
[7] = test system: CAKI-1 renal
[8] = test system: SW-620 colon
[9] = test system: NCI/ADR-RES ovarian
[10] = test system: OVCAR-4 ovarian
[11] = test system: MDA-MB-435
[12] = test system: HCC-2998 colon
[13] = test system: A549 NSCLC
[14] = test system: HCT-116 colon
[15] = test system: HOP-62 NSCLC
[16] = test system: NCI-H522 lung
[17] = test system: SNB-75 CNS
[18] = test system: SF-539 CNS
[19] = test system: T-47D breast
[20] = test system: HT29 colon
[21] = test system: SF-295 CNS
[22] = test system: KM12 colon
[23] = test system: SK-MEL-28 melanoma
[24] = test system: BT-549 breast
[25] = test system: SNB-19 CNS
[26] = test system: LOX IMVI melanoma
[27] = test system: IGROV1 ovarian
[28] = test system: TK-10 renal
[29] = test system: M14 melanoma
[30] = test system: UACC-257 melanoma
[31] = test system: SN12C renal
[32] = test system: COLO 205 colon
[33] = test system: NCI-H226 lung
[34] = test system: UO-31 renal
[35] = test system: SK-OV-3 ovarian
[36] = test system: HCT-15 colon
[37] = test system: EKVX NSCLC
[38] = test system: MOLT-4 leukemia
[39] = test system: RXF 393 renal
[40] = test system: SK-MEL-5 melanoma
[41] = test system: MALME-3M melanoma
[42] = test system: MDA-MB-231 breast
[43] = test system: HS 578T breast
[44] = test system: RPMI-8226 leukemia
[45] = test system: OVCAR-3 ovarian
[46] = test system: U251 CNS
[47] = test system: OVCAR-5 ovarian
[48] = test system: NCI-H23 lung
[49] = test system: ACHN renal
[50] = test system: A498 renal
[51] = test system: SF-268 CNS
[52] = test system: DU-145 prostate
[53] = test system: UACC-62 melanoma
[54] = test system: PC-3 prostate

Which GI50 [1] does the source give for COCCNCCc1cccc(Nc2ncc3c(n2)-c2ccccc2C(c2ccccc2F)C3)c1 (stereo not drawn) here?
The GI50 was 1.71 µM and 1.94 µM.

What about the TGI [1] of the same molecule?
Its TGI is 3.19 µM and 3.44 µM.

What about the GI50 [2] of the same molecule?
The GI50 was 1.79 µM and 1.87 µM.

What about the TGI [2] of the same molecule?
Its TGI is 3.38 µM and 3.9 µM.

And the GI50 [3]?
The GI50 was 1.02 µM and 1.24 µM.

What about the TGI [3] of the same molecule?
Its TGI is 2.27 µM and 2.65 µM.

What about the GI50 [4] of the same molecule?
The GI50 was 1.43 µM and 1.76 µM.

What about the TGI [4] of the same molecule?
The TGI was 2.91 µM and 3.3 µM.

What about the GI50 [5] of the same molecule?
Its GI50 is 1.58 µM and 1.78 µM.

What about the TGI [5] of the same molecule?
Its TGI is 3.4 µM and 3.69 µM.

And the GI50 [6]?
Its GI50 is 1.33 µM and 1.7 µM.

What about the TGI [6] of the same molecule?
The TGI was 3.08 µM and 3.47 µM.

What about the GI50 [7] of the same molecule?
The GI50 was 1.27 µM and 1.26 µM.

And the TGI [7]?
The TGI was 2.54 µM.

And the GI50 [8]?
Its GI50 is 2.4 µM.

What about the TGI [8] of the same molecule?
Its TGI is 4.63 µM.

What about the GI50 [9] of the same molecule?
The GI50 was 1.79 µM and 1.76 µM.

What about the TGI [9] of the same molecule?
Its TGI is 3.43 µM and 3.45 µM.

What about the GI50 [10] of the same molecule?
The GI50 was 1.34 µM and 1.72 µM.

What about the TGI [10] of the same molecule?
The TGI was 2.74 µM and 3.18 µM.

What about the GI50 [11] of the same molecule?
Its GI50 is 1.75 µM and 1.82 µM.

What about the TGI [11] of the same molecule?
Its TGI is 3.25 µM and 3.32 µM.

And the GI50 [12]?
Its GI50 is 1.77 µM and 2.08 µM.

What about the TGI [12] of the same molecule?
Its TGI is 3.28 µM and 3.65 µM.

And the GI50 [13]?
Its GI50 is 1.78 µM and 1.88 µM.

And the TGI [13]?
The TGI was 3.33 µM and 3.51 µM.

What about the GI50 [14] of the same molecule?
The GI50 was 1.21 µM and 1.66 µM.

And the TGI [14]?
Its TGI is 2.6 µM and 3.12 µM.

And the GI50 [15]?
Its GI50 is 1.6 µM and 1.71 µM.

What about the TGI [15] of the same molecule?
The TGI was 3.11 µM and 3.3 µM.

What about the GI50 [16] of the same molecule?
Its GI50 is 1.53 µM and 1.52 µM.

And the TGI [16]?
The TGI was 2.95 µM.

And the GI50 [17]?
Its GI50 is 1.17 µM and 0.727 µM.

And the TGI [17]?
Its TGI is 2.48 µM and 2.09 µM.

And the GI50 [18]?
The GI50 was 1.32 µM and 1.5 µM.

What about the TGI [18] of the same molecule?
The TGI was 2.62 µM and 2.86 µM.

What about the GI50 [19] of the same molecule?
The GI50 was 1.76 µM and 1.82 µM.

What about the TGI [19] of the same molecule?
The TGI was 3.6 µM and 3.92 µM.

What about the GI50 [20] of the same molecule?
The GI50 was 1.12 µM and 1.31 µM.

What about the TGI [20] of the same molecule?
Its TGI is 2.36 µM and 2.68 µM.

And the GI50 [21]?
The GI50 was 1.72 µM and 1.61 µM.

And the TGI [21]?
Its TGI is 3.11 µM and 2.99 µM.

And the GI50 [22]?
The GI50 was 1.77 µM and 1.79 µM.

What about the TGI [22] of the same molecule?
The TGI was 3.43 µM and 3.37 µM.

What about the GI50 [23] of the same molecule?
The GI50 was 1.6 µM and 1.76 µM.

What about the TGI [23] of the same molecule?
Its TGI is 2.97 µM and 3.18 µM.

And the GI50 [24]?
The GI50 was 1.55 µM and 7.79 µM.

And the TGI [24]?
Its TGI is 2.95 µM and 25.6 µM.

And the GI50 [25]?
Its GI50 is 1.75 µM and 1.81 µM.

And the TGI [25]?
The TGI was 3.18 µM and 3.28 µM.

And the GI50 [26]?
The GI50 was 1.25 µM and 1.23 µM.

What about the TGI [26] of the same molecule?
The TGI was 2.56 µM and 2.5 µM.

What about the GI50 [27] of the same molecule?
The GI50 was 1 µM and 1.21 µM.

What about the TGI [27] of the same molecule?
The TGI was 2.38 µM and 2.75 µM.

And the GI50 [28]?
The GI50 was 1.38 µM and 1.6 µM.

And the TGI [28]?
Its TGI is 2.74 µM and 2.98 µM.

And the GI50 [29]?
Its GI50 is 1.56 µM and 1.94 µM.

What about the TGI [29] of the same molecule?
Its TGI is 3.06 µM and 3.78 µM.

And the GI50 [30]?
Its GI50 is 2.01 µM and 2.15 µM.

And the TGI [30]?
Its TGI is 3.54 µM and 4.05 µM.

And the GI50 [31]?
The GI50 was 1.32 µM and 1.04 µM.

What about the TGI [31] of the same molecule?
The TGI was 2.7 µM and 2.34 µM.

And the GI50 [32]?
The GI50 was 1.88 µM and 1.92 µM.

What about the TGI [32] of the same molecule?
Its TGI is 3.67 µM and 3.63 µM.

What about the GI50 [33] of the same molecule?
Its GI50 is 1.31 µM and 1.8 µM.

And the TGI [33]?
Its TGI is 2.94 µM and 3.67 µM.

What about the GI50 [34] of the same molecule?
Its GI50 is 0.685 µM and 1.29 µM.

What about the TGI [34] of the same molecule?
The TGI was 2.06 µM and 2.57 µM.

And the GI50 [35]?
The GI50 was 1.71 µM and 2.45 µM.

What about the TGI [35] of the same molecule?
The TGI was 3.14 µM and 6.34 µM.

What about the GI50 [36] of the same molecule?
The GI50 was 1.19 µM and 1.26 µM.

And the TGI [36]?
The TGI was 2.56 µM and 2.6 µM.

And the GI50 [37]?
The GI50 was 1.63 µM and 1.92 µM.

What about the TGI [37] of the same molecule?
Its TGI is 3.13 µM and 3.51 µM.

What about the GI50 [38] of the same molecule?
The GI50 was 1.18 µM.

What about the TGI [38] of the same molecule?
The TGI was 4.15 µM.

What about the GI50 [39] of the same molecule?
The GI50 was 1.11 µM and 1.24 µM.

What about the TGI [39] of the same molecule?
Its TGI is 2.39 µM and 2.59 µM.

What about the GI50 [40] of the same molecule?
The GI50 was 1.65 µM.

And the TGI [40]?
Its TGI is 3.04 µM and 3.03 µM.

And the GI50 [41]?
Its GI50 is 1.77 µM and 1.87 µM.

What about the TGI [41] of the same molecule?
The TGI was 3.41 µM and 3.54 µM.

And the GI50 [42]?
Its GI50 is 1.67 µM and 1.45 µM.

And the TGI [42]?
Its TGI is 3.11 µM and 2.84 µM.

What about the GI50 [43] of the same molecule?
The GI50 was 1.15 µM and 1.27 µM.

And the TGI [43]?
Its TGI is 3.46 µM and 3.79 µM.

And the GI50 [44]?
Its GI50 is 1.52 µM and 1.74 µM.

And the TGI [44]?
The TGI was 3.7 µM and 4.23 µM.

What about the GI50 [45] of the same molecule?
Its GI50 is 1.76 µM and 1.6 µM.

And the TGI [45]?
The TGI was 3.48 µM and 3.1 µM.

What about the GI50 [46] of the same molecule?
Its GI50 is 1.24 µM and 1.82 µM.

What about the TGI [46] of the same molecule?
The TGI was 2.57 µM and 3.28 µM.

And the GI50 [47]?
Its GI50 is 1.42 µM and 1.57 µM.

And the TGI [47]?
The TGI was 2.76 µM and 3.02 µM.

And the GI50 [48]?
The GI50 was 1.65 µM and 1.75 µM.

And the TGI [48]?
Its TGI is 3.1 µM and 3.32 µM.

And the GI50 [49]?
Its GI50 is 1.03 µM and 1.05 µM.

And the TGI [49]?
Its TGI is 2.2 µM and 2.23 µM.

And the GI50 [50]?
The GI50 was 0.345 µM and 1.61 µM.

And the TGI [50]?
Its TGI is 1.75 µM and 3.14 µM.

And the GI50 [51]?
The GI50 was 1.44 µM and 1.64 µM.

What about the TGI [51] of the same molecule?
Its TGI is 3.07 µM and 3.19 µM.

And the GI50 [52]?
The GI50 was 1.53 µM and 1.62 µM.

And the TGI [52]?
The TGI was 2.98 µM and 3.04 µM.

What about the GI50 [53] of the same molecule?
Its GI50 is 1.72 µM and 1.76 µM.

What about the TGI [53] of the same molecule?
Its TGI is 3.12 µM and 3.16 µM.

What about the GI50 [54] of the same molecule?
Its GI50 is 1.49 µM and 1.39 µM.

And the TGI [54]?
The TGI was 2.89 µM and 2.86 µM.
